± gives the expanded uncertainty stated by the source.
Conditions: 101.33 kPa, Liquid

SMILES: NC=O [formamide]
- viscosity (298.15 K): 3.23 ± 0.17 mPa·s
- viscosity (303.15 K): 2.95 ± 0.16 mPa·s
- viscosity (308.15 K): 2.67 ± 0.15 mPa·s
- viscosity (313.15 K): 2.43 ± 0.14 mPa·s
- viscosity (318.15 K): 2.2 ± 0.13 mPa·s
- viscosity (323.15 K): 1.99 ± 0.12 mPa·s
- viscosity (328.15 K): 1.82 ± 0.11 mPa·s
- viscosity (333.15 K): 1.69 ± 0.11 mPa·s
- viscosity (338.15 K): 1.58 ± 0.11 mPa·s
- viscosity (343.15 K): 1.52 ± 0.1 mPa·s
- viscosity (348.15 K): 1.49 ± 0.1 mPa·s

From the NIST ThermoML archive (doi:10.1021/je500284p)
